Experimental data reported in patent US20220396818A1, “POLYNUCLEOTIDE SYNTHESIS METHOD, KIT AND SYSTEM” (Oxford Nanopore Technologies PLC, priority 2019, published 2022).

Tested on: 3′-O-azidomethyl group on DNA model
Experiment: Deprotection of 3′-O-azidomethyl group by TCEP, monitored by extension reaction
Conditions: 0.2 μM DNA model
Procedure: Deprotection step (FIG. 26a) was studied on DNA model bearing 3′-O-azidomethyl group that is introduced to DNA by incorporation of 3′-O-azidomethyl-dNTPs by Therminator IX DNA polymerase. Deprotection was carried out by tris(carboxyethyl)phosphine (TCEP) and monitored by extension reaction when mixture of all natural dNTPs is added to the solution of the purified deprotected DNA.
• 1. 2 μl of 10× Thermopol® buffer (20 mM Tris-HCl, 10 mM (NH4)2SO4, 10 mM KCl, 2 mM MgSO4, 0.1% Triton® X-100, pH 8.8, New England BioLabs) was mixed with 12.25 μl of sterile deionized water (ELGA VEOLIA) in 1.5 ml Eppendorf tube. • 2. 1 μl of 10 μM primer (10 pmol, 1 equiv) (SEQ ID NO: 39, FIG. 26i) and 1.5 μl of either 10 μM template-A/G/T/C (15 pmol, 1.5 equiv) (SEQ ID NOS: 40 to 43, FIG. 26i) were added to the reaction mixture. • 3. 3′-O-modified-dTTP/dCTP/dATP/dGTP (2 μl of 100 μM) and MnCl2 (1 μl of 40 mM) were added. • 4. 1.5 μl of Therminator IX DNA polymerase (15 U, New England BioLabs) was then added. • 5. The reaction was incubated for 5 minutes at 37° C. • 6. 4 μL of the sample was taken out and mixed with 0.5 ul of 5 mM dNTP mix and allowed to react for 10 minutes for control reaction. • 7. 40 μL of the 500 mM TCEP in 1M TRIS buffer pH 7.4 was added to the reaction mixture and allowed to react for 10 minutes at 37° C. • 8. […]

O=C(O)CCP(CCC(=O)O)CCC(=O)O [TCEP, tris(carboxyethyl)phosphine]
cleavage of 3′-O-azidomethyl group with high efficiency (50 mM TCEP): not sufficient | efficiency of cleavage of 3′-O-azidomethyl group (300 mM TCEP): 95%
